# Measurements: publication doi:10.1101/2021.04.29.441652v1 (biorxiv, 2021)
# Target: human σ2 receptor (TMEM97) (Homo sapiens, UniProt Q5BJF2)
# Assay: biochemical
# Assay type: Expi293 membranes
# Conditions: read-out: % of control remaining
# human σ2 receptor (TMEM97), sequence (Q5BJF2 whole entry): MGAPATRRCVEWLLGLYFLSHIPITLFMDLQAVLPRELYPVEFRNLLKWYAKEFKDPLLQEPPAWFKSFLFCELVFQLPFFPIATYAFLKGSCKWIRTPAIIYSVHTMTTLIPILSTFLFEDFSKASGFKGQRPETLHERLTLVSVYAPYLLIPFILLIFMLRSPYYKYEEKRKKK
row,Compound,remaining activity at 1 µM
1,FC(F)(F)c1cccc([C@@]2(F)CCN(C[C@@H]3CCSC3)C2)c1 [ZINC000549824186],20%
2,O=C([C@@H]1CCCN(CC(F)F)C1)N1CC[C@]2(CCN(CCO)C2)C1 [ZINC001041605786],110%
3,O=C([C@@H]1C[C@H]1C(F)(F)F)N(CCN1CCCCCC1)C1CCC1 [ZINC000452023252],37.5%
4,CN1CC[C@@H](CNC(=O)Nc2cc(F)ccc2Oc2ccccc2)C1 [ZINC000454705882],87.6%
5,O=C(c1cccnn1)N1CCC(O)(CNc2cncc(Cl)n2)CC1 [ZINC001067478391],104%
6,O[C@H](COC(c1ccccc1)c1ccccc1)CN1CC[C@@H]2CCC[C@H]21 [ZINC000426471156],36.3%
7,Cc1nc(CN2CC[C@H](CC3CC3)C2)nc2ccccc12 [ZINC000550423124],43.5%
8,Cc1cc(C)nc(C(=O)N2CC[C@H]2CNC(=O)[C@@H]2CCN(C)C2)c1 [ZINC000950078544],108%
9,CCOC(=O)[C@@H]1CCN(C[C@@H](O)COc2cccc(C)c2)C1 [ZINC000932649435],69.5%
10,C[C@H](CN(C)CC(=O)NCc1cccc(Cl)c1)c1ccccc1 [ZINC000589606863],68.9%
11,O=[N+]([O-])c1cccc([C@H](O)CN2CC(Cc3cccc(C(F)(F)F)c3)C2)c1 [ZINC000792998860],3.8%
12,CCC[C@@H]1C[C@H]1C(=O)NCC1(O)CN(C(=O)C2CN(C(C)=O)C2)C1 [ZINC001046261579],114%
13,Cn1nccc1[C@@H]1CCC[C@@H](N[C@H]2CC3CCC2CC3)C1 [ZINC000550829396],19.6%
14,COc1ccc([C@@H](C)N[C@H](CO)C2CCC2)cc1Br [ZINC000658086473],42.3%
15,CC(C)CSc1ccc([N+](=O)[O-])cc1C(=O)N(C)C[C@H]1CCCN1C [ZINC000421710394],94.6%
16,COCC1(C(=O)N2CCC[C@@H](N(C)CC[C@H](C)F)C2)CC1 [ZINC001420054689],78.5%
17,Cc1cnoc1C(=O)NC1CN(C(=O)[C@@H]2CCN(C)S2(=O)=O)C1 [ZINC000998978244],98.3%
18,Cc1nc(CN[C@H]2C[C@H](NC(=O)Cn3ncn(C)c3=O)C2)cs1 [ZINC001020327691],102%
19,Cc1cc(C(C)(C)C)ccc1OC[C@@H](O)CN1CC[C@]2(CCOC2)C1 [ZINC000153451054],17.2%
20,NC(=O)c1ccccc1N1CC[C@H](NC(=O)CC2CCNCC2)C1 [ZINC000378210510],95.3%
21,NC(=O)[C@@H]1CCC[C@@H](C(=O)NCC2(O)CN(C(=O)C3CCC3)C2)C1 [ZINC001046939982],110%
22,CC[C@H](NC(=O)C(=O)N(CC)CCCN1CCCC1)[C@@H]1CCCO1 [ZINC000345970626],71.7%
23,Fc1ccc(NC(=S)NC2CCN([C@H]3CCOC3)CC2)cc1 [ZINC000853031922],115%
24,Cc1cccc(F)c1C(=O)NCC1CCN(CCn2cncn2)CC1 [ZINC001002178741],109%
25,Brc1ccccc1-n1cc(CN2CC[C@@H]3CCC[C@@H]32)nn1 [ZINC000685844120],51.3%
26,O=C(C1CCCC1)N1CCC[C@H]([C@@H]2CCN(C/C=C\Cl)C2)C1 [ZINC000961091031],33%

row,Compound,remaining activity at 1 µM
1,COCCN1CCC[C@@H]1CNC(=O)C(=O)N1CCC[C@@H](C(C)C)CC1 [ZINC000557493019],113%
2,CN1CC[C@@H](C(=O)NC[C@H]2CN(Cc3csnn3)CCCO2)C1 [ZINC001073886256],113%
3,COCCN1CCC(NC(=O)C(=O)N[C@H]2CCOC(C)(C)C2)CC1 [ZINC000343016571],118%
4,O=C(CCn1cccn1)NCCN1CCN(CCn2cccn2)CC1 [ZINC001369886058],111%
5,C[C@@H]1CN(C2CC2)C[C@H]1NC(=O)N(Cc1cccc(Br)c1)C1CC1 [ZINC000466933503],84.3%
6,CCCN1C(=O)N(CC(C)(C)N2CCc3ccccc3C2)C(=O)[C@H]1CC [ZINC000430847713],67.3%
7,CC(C)n1cc(C(=O)N2CC(O)(CNC(=O)c3ccnnc3)C2)nn1 [ZINC001047126822],107%
8,CCc1c(C(=O)N[C@@H]2CN(C(=O)c3n[nH]cc3C)C[C@@H]2O)cnn1C [ZINC000968717635],94.6%
9,CC[C@@H]1[C@@H](NC(=O)Cc2ccc(C)cc2)CCN1C[C@@H]1CCOC1 [ZINC001087646081],99.4%
10,Cc1nc[nH]c1C(=O)N1CC(O)(CNC(=O)CN2CC[C@H](C)C2)C1 [ZINC001046685471],101%
11,CC[C@H](CO)N1CCN(c2cc(Cl)c3cnn(C)c3n2)CC1 [ZINC000892713700],99.5%
12,COC(=O)[C@@H](NCC[C@H](C)N(C)Cc1ccccc1)c1cccc(C#N)c1 [ZINC000176805277],41.6%
13,Cc1cc([N+](=O)[O-])cc(C)c1S(=O)(=O)NC[C@H]1CCN(C)C1 [ZINC000416493836],72.3%
14,C[C@H]1CN(CCN(C)C(=O)C(=O)NC2CCN(C)CC2)C[C@H](C)O1 [ZINC000339640280],106%
15,Cc1cccc(C[C@H](CO)NCc2cnc(C3CCCCC3)s2)c1 [ZINC000526962900],60.7%
16,CS[C@@H]1CCN(C[C@@H](O)COC(c2ccc(F)cc2)c2ccc(F)cc2)C1 [ZINC000451319844],63%
17,NC(=O)C(=O)N1CCC(O)(CNC(=O)[C@H]2CCCCC2(F)F)CC1 [ZINC001074702922],109%
18,C[C@H](C(=O)NCc1ccc(F)cc1)N1C[C@H]2C[C@@H](O)CC[C@H]2C1 [ZINC000412048402],88.6%
19,C[C@H](Cn1cncn1)N[C@@H]1CCN(c2ccccc2C(F)(F)F)C1 [ZINC000657977970],83.1%
20,COCCn1cc(C(=O)N2C[C@@H](C)[C@@H](NCc3ccccn3)C2)nn1 [ZINC001054647418],104%
21,O=C(NCCCC1CC1)C(=O)NC1CCN([C@H]2CCC[C@@H]2O)CC1 [ZINC000673584800],110%
22,CN1CCN(C(=O)C(=O)N2CCCN(C3CCCC3)CC2)CC1=O [ZINC000556797005],79.9%
23,O=C1Nc2ccccc2CC[C@H]1N1CC[C@@H](COCc2ccccc2)C1 [ZINC000192043753],52.9%
24,C=CCOCC(=O)N(CCN)CCc1ccccc1 [ZINC000261774189],108%
25,C[C@H](CCCc1cccnc1)N[C@@H](C)Cn1cccn1 [ZINC000453142034],24.9%
26,C[C@H](C(=O)NCc1ccc(Cl)cc1)N1CC[C@@H](c2cccnc2)C1 [ZINC000571080072],64%

row,Compound,remaining activity at 1 µM
1,CC(C)Cc1ccc(C(=O)Nc2ccc(OCCN3CCN(C)CC3)cc2)cc1 [ZINC000608224751],75.6%
2,C[C@H](c1ccccc1Br)N(C)C(=O)C[C@@H]1CCCN1 [ZINC000423867812],95.6%
3,CN(C)C(=O)c1cncc(N[C@H]2CC[C@H](NC(=O)C(N)=O)CC2)n1 [ZINC001063398490],146%
4,O[C@@H](CN1CC[C@@H](CSc2ccccc2)C1)c1c(F)cccc1F [ZINC000743860012],23.7%
5,COC1CCC(N(C)CC(=O)Nc2ccc3ccccc3c2)CC1 (stereo not drawn) [ZINC000265181994],102%
6,CCc1noc(C)c1C(=O)NC1CN(C(=O)[C@H]2CCCCN2C)C1 [ZINC000991393621],116%
7,Cc1cc(C(=O)N2CC[C@H](NCc3cccc(Cl)c3F)C2)ncn1 [ZINC001018723708],101%
8,Cc1ccccc1[C@@H]1CCN([C@H](C)C(=O)NCCc2ccccc2)C1 [ZINC000513818302],89.1%
9,O=C(NC1CCCCC1)C(=O)NC1CCN(C[C@H]2CCCO2)CC1 [ZINC000774469834],83.3%
10,O=C(Cn1cnnn1)N1CC(CNC(=O)C23CCCN2CCC3)C1 [ZINC001003297636],72.3%
11,CN1CCC(C(=O)NC[C@@H]2CCN(c3ncc(Cl)cn3)C2)CC1 [ZINC001061620290],91.3%
12,O=C(NC1CC1)C(=O)N1CCN(S(=O)(=O)C[C@@H]2CCCO2)CC1 [ZINC000407973885],120%
13,CC(C)Cc1ccc(C(=O)N2CCN([C@@H]3CCC[C@@H]3O)CC2)cc1 [ZINC000592403811],153%
14,O=C(Cn1cnnn1)N[C@H]1CCN(c2ncnc3c2CCC3)C[C@H]1O [ZINC001051633080],132%
15,CN(C(=O)CCn1cnc2c1c(=O)n(C)c(=O)n2C)c1cn[nH]c1 [ZINC000748395040],108%
16,O[C@H](CN[C@@H]1CCc2ccccc2OC1)COc1c(Cl)cccc1Cl [ZINC000801571276],37.6%
17,CC[C@@H](CN1CCCC1)NC(=O)C(=O)NC1COC(C)(C)OC1 [ZINC000806327364],106%
18,O[C@]1(CN[C@@H]2CC[C@@H](Cc3ccccc3)C2)CCSC1 [ZINC000249076038],30.5%
19,CC1CCN(C[C@H](O)CNc2nccc3ccc([N+](=O)[O-])cc23)CC1 [ZINC000413145325],62.9%
20,Cc1ccnc2nc(C(=O)N3CCN(CCN4CCCC4)CC3)nn12 [ZINC000518759550],115%
21,Cc1ccncc1N1CCN(C[C@H](O)CN2C[C@@H](C)O[C@H](C)C2)CC1 [ZINC000340106708],50%
22,CCN1CCCC[C@H]1C(=O)NC[C@@H](O)CNC(=O)c1cnccn1 [ZINC001416718427],80.5%
23,CC(C)N1C[C@H](NC(=O)c2ccn(Cc3ccccc3)c2)[C@@H](C)C1 [ZINC000359009035],99.8%
24,O=C(OC[C@@H]1CCN1Cc1ccccc1)c1nccc2occc12 [ZINC001525937517],117%
25,O=S(=O)(N[C@@H]1CCc2nnnn2CC1)c1cnc2n1CCCC2 [ZINC001363999416],104%
26,OC[C@H](N[C@H]1Cc2[nH]c3ccccc3c2C1)C1CCCCC1 [ZINC000669616349],56.6%
